Where two headings read alike, the source gives them in different places.

This note sets out measurements from patent US11168319B1, “Plant cell culture” (Inari Agriculture Technology, Inc., priority 2017, dated 2021).

For test [1], the system named is maize B73 protoplasts. To be noted: for Viability (%): 100 mM Ca; for protoplast viability: 288 hours, YPIM B- medium. The procedure: Separate suspensions of maize B73 and A188 protoplasts (2×10^5 cells per milliliter) were prepared in YPIM B-liquid medium containing various combinations of the added salts calcium chloride, potassium ascorbate, and magnesium chloride or magnesium sulfate. One-half milliliter aliquots of the suspensions were dispensed into a 24-well microtiter plate in the arrangement shown in Table 2, which lists the concentrations of calcium chloride (“Ca”), potassium ascorbate (“A”), and magnesium chloride (“MgCl2”) or magnesium sulfate (“MgSO4”) in millimolar values.
Viability was judged by Evans blue staining and visualization under a light microscope.
Separate suspensions of maize B73, winter wheat, soy, and strawberry protoplasts (2×10^5 cells per milliliter) were prepared in YPIM B-liquid medium containing calcium chloride at 0, 50, or 100 millimolar. One-half milliliter aliquots of the suspensions were dispensed into a 24-well microtiter plate.
Viability at day 8 of culture was judged by visualization under a light microscope.
Viability at day 13 was judged by Evans blue staining and visualization under a light microscope.
Separate suspensions of maize B73 protoplasts (2×10^5 cells per milliliter) were prepared in PIM B-liquid medium (identical to YPIM B-medium except with the 6-benzylaminopurine substituted with 0.022 milligrams/L thidiazuron) containing calcium chloride added at 0, 5, 20, 40, 70, or 100 millimolar. One-half milliliter aliquots of the suspensions were dispensed into a 24-well microtiter plate.
Viability was judged by visualization under a light microscope at day 7 and at day 14 of culture.
Separate suspensions of maize B73 and A188 protoplasts (2×10^5 cells per milliliter) were prepared in PIM B-liquid medium (identical to YPIM B-medium except with the 6-benzylaminopurine substituted with 0.022 milligrams/L thidiazuron) containing calcium chloride added at 0 or 50 millimolar. One-half milliliter aliquots of the suspensions were dispensed into a 24-well microtiter plate.
Viability was judged by visualization under a light microscope.
Separate suspensions of maize B73 and A188 protoplasts (2×10^5 cells per milliliter) were prepared in YPIM B-liquid medium containing (a) calcium chloride added at 100 millimolar, or (b) 1 millimolar glutathione, or (c) no added calcium or glutathione. One-milliliter aliquots of the suspensions were dispensed into a 24-well microtiter plate. At 16, 40, 64, and 136 hours of culture, 50-microliter samples were taken for hemocytometer analysis from each well; for the plates containing maize A188 protoplasts, parallel 50-microliter samples were taken from a replicate well at 16, 40, and 64 hours of culture for quantification using a Cellometer cell counter (Nexcelom Bioscience LLC, Lawrence, Mass.).
Viability was determined by Evans blue staining and quantification using a hemocytometer. Under conditions with high concentrations of calcium, Evans blue can create precipitates that interfere with cell counting; to prevent this, 5 microliters of an EDTA solution was added to the samples from the wells containing 100 millimolar calcium chloride immediately prior to staining.

The test system of test [2] is plant protoplasts.
[3] abbreviates: day 13, 50 millimolar calcium, Evans blue.

The term viability denotes the share of living cells, or the viability signal relative to a control. With `[Ca+2].[Cl-].[Cl-]` [calcium chloride], the “Viability (%)” value in test [1] (0 hours, hemocytometer) came to 90%; in test [1] (16 hours), 65%; in test [1] (40 hours) it was 57%; in test [1] (64 hours), 58%; in test [1] (136 hours) it was 30%. For the same compound, the protoplast viability result in test [1] (50 mM added salt) is “almost all dead”; in test [1] (100 mM added salt), 10-20%; in test [2] (between or about 50 to about 100 millimolar, several titration experiments), “greatest improvement in protoplast viability”. Besides, the “viability and cell division” value in test [1] (PIM B- medium, 100 millimolar calcium) is “strongest enhanced viability and cell division”; in test [1] (day 7, PIM B- medium, 40, 70, or 100 millimolar calcium) it was “formed clusters of viable, healthy cells with cell division occurring”. The viability result is “still contained viable cells” in test [1] (day 6, PIM B- medium, 50 millimolar calcium); “dead” in test [1] (day 7, PIM B- medium, less than 40 millimolar calcium); 30% in test [1] (day 8, 50 millimolar calcium, YPIM B-, light microscope); 80% in test [1] (day 8, 100 millimolar calcium, YPIM B-, light microscope); 0% in test [1] (setting [3]); 10% in test [1] (day 13, 100 millimolar calcium, Evans blue). Also, the “viability of the maize protoplasts (second statement in the sentence)” value in test [1] (setting [3]) was determined as 50%. Moreover, the plant protoplast viability entry is listed as “Even higher levels of plant protoplast viability” in test [2] (about 40 millimolar or about 50 millimolar) and “Beneficial effects” in test [2] (culture medium contains about 30 millimolar).
